Test results from patent US6589963B2, “Heterocyclic compounds and salts thereof and medicinal use of the same” (Kyoto Pharmaceutical Industries, Ltd., priority 1999, dated 2003).

How the values were obtained:
male KK-A^y mice [1] = assay: Hypoglycemic action and hypoinsulinemic action in insulin resistant diabetic mouse; assay type: in vivo; settings: 10 mg/kg orally once a day for 4 days, 24 hours after final administration, non-fasting; for Plasma glucose: control 507; for Insulin: plasma, control 43
Protocol: Blood was drawn from the tail vein of 12-week-old male KK-A^y mice under a non-fasting state, and the glucose level in the plasma was measured using a commercially available assay kit (glucose CII-test WAKO, Wako Pure Chemical Industries, Ltd.). The mice were grouped (5 mice per group) into a control group and an administration group, such that the mean glucose level in the plasma and the average body weight of each group, as well as the standard deviation thereof were nearly the same. The test compound (10 mg/kg) was suspended in 5% aqueous gum arabic solution and orally administered once a day to the administration group for 4 days from the next day. The 5% aqueous gum arabic solution was orally administered to the control group. Blood was drawn from the tail vein under a non-fasting state 24 hours after the final administration. The concentrations of plasma glucose and plasma insulin were measured.

male KK-A^y mice [2] = assay: Hypotriglyceridemic action; assay type: in vivo, mouse; settings: 4 consecutive days, non-fasting, about 24 hours after final administration, vs control group
Protocol: (§1) The triglyceride level in the plasma was measured using a commercially available assay kit (triglyceride G-test WAKO, Wako Pure Chemical Industries, Ltd.). The mice were grouped (5 mice per group) into a control group and an administration group, such that the mean and the standard deviation of the triglyceride level in the plasma of each group were nearly the same. Each test compound was suspended or dissolved in 5% gum arabic solution and administered orally to the administration group for 4 consecutive days from the next day. The 5% gum arabic solution was orally administered to the control group. Blood was drawn from the tail vein under a non-fasting state about 24 hours after the final administration and the triglyceride level in the plasma was measured. The decrease in the plasma triglyceride level was calculated from the following formula.
Decrease (%) in plasma triglyceride level=[(mean plasma triglyceride level of control group−mean plasma triglyceride level of test compound administration group)/mean plasma triglyceride level of control group]×100

male KK-A^y mice [3] = assay: Hypoglycemic action (method A); assay type: in vivo, mouse; settings: 4 consecutive days, non-fasting, about 24 hours after final administration, vs control group
Protocol: as §1, with “glucose” for “triglyceride”, “(glucose CII-test” for “(triglyceride G-test”
(§2) Decrease (%) in plasma glucose level=[(mean plasma glucose level of control group−mean plasma glucose level of test compound administration group)/mean plasma glucose level of control group]×100

3T3-L1 cells = assay: Triglyceride accumulation promoting action in 3T3-L1 cells; assay type: cell-based; settings: 10^−7 M test compound with 10 ng/ml insulin, 4 days; relative to control
Protocol: A culture medium of 80% confluent 3T3-L1 cells was removed and the cells were dissociated with 0.25% trypsin-EDTA solution. 5% FBS-DMEM (the same amount as the removed medium) was added and the obtained cell suspension was centrifuged at 25° C., 100×g for 1 min to give cell sediment and the supernatant was removed. The cells were re-suspended in a suitable amount of 5% FBS-DMEM medium and the cells were counted. 5% FBS-DMEM medium was added to adjust the concentration to 1×10^5 cells/ml and the mixture was dispensed by 1 ml to a 24 well plate. The cells were cultured with aeration of 5% CO2 at 37° C. for 2 days. Upon confirmation of a post-confluent state, the culture supernatant was changed to a medium containing 0.5 mM-IBMX, and the cells were cultured for 2 days. Then, the medium was changed to a medium containing 10 ng/ml insulin and 10^−7 M test compound and the cells were cultured further for 4 days. After removing the culture supernatant, the cells were lysed in a 0.1% SDS solution and the triglyceride amount was measured. The triglyceride accumulation (%) due to the potentiation of insulin activity by the test compound was calculated from the following formula.
[(triglyceride amount with addition of test compound−triglyceride amount of control)/triglyceride amount of control]×100

male KK-A^y mice [4] = assay: Hypoglycemic action (method B); assay type: in vivo, mouse; settings: 0.1 w/w % in powder feed for 4 days, blood at day 5, non-fasting, vs control group
Protocol: The glucose level in the plasma was measured using a commercially available assay kit (glucose CII-test WAKO, Wako Pure Chemical Industries, Ltd.). The mice were grouped (5 mice per group) into a control group and an administration group, such that the mean and the standard deviation of the glucose level in the plasma of each group were nearly the same. Each test compound was admixed in a proportion of 0.1 w/w % with a powder feed (CE-2, Clea) and the feed mixture was fed to the administration group for 4 days from the next day. A regular powder feed was fed to the control group. At day 5, blood was drawn from the tail vein under a non-fasting state and the glucose level in the plasma was measured. The decrease in the plasma glucose level was calculated from the following formula.
as §2

Row | SMILES | Plasma glucose (male KK-A^y mice [1]) [mg/dL] | Insulin (male KK-A^y mice [1]) [ng/mL] | Decrease (%) in plasma triglyceride level (male KK-A^y mice [2]; dose 10 mg/kg orally) [%] | Decrease (%) in plasma triglyceride level (male KK-A^y mice [2]; dose 30 mg/kg orally) [%] | Decrease (%) in plasma glucose level (male KK-A^y mice [3]; dose 10 mg/kg orally) [%] | Decrease (%) in plasma glucose level (male KK-A^y mice [3]; dose 30 mg/kg orally) [%] | Triglyceride accumulation (%) (3T3-L1 cells) | Decrease (%) in plasma glucose level (male KK-A^y mice [4]) [%]
1 | Cc1oc(-c2ccccc2)nc1CCOc1ccc2c(c1)CN(Cc1ccccc1)[C@H](C(=O)O)C2 [Example 2, 2-Benzyl-7-[2-(5-methyl-2-phenyloxazol-4-yl)ethoxy]-1,2,3,4-tetrahydroisoquinoline-(3S)-carboxylic acid] | 313 | 26 | 39.5 | 54.3 | 38.3 | 60.6 | 260.4 | 69.2
2 | CCCCCC(=O)N1Cc2cc(OCCc3nc(-c4ccccc4)oc3C)ccc2C[C@H]1C(=O)O [Example 5, 2-Hexanoyl-7-[2-(5-methyl-2-phenyloxazol-4-yl)ethoxy]-1,2,3,4-tetrahydroisoquinoline-(3S)-carboxylic acid] | – | – | – | 30.9 | 34.1 | 43.4 | 233.0 | –
3 | Cc1oc(-c2ccccc2)nc1CCOc1ccc2c(c1)CN(C(=O)c1ccccc1)[C@H](C(=O)O)C2 [Example 10, 2-Benzoyl-7-[2-(5-methyl-2-phenyloxazol-4-yl)ethoxy]-1,2,3,4-tetrahydroisoquinoline-(3S)-carboxylic acid] | – | – | – | – | – | – | – | 42.4
4 | COc1ccc(CN2Cc3cc(OCCc4nc(-c5ccccc5)oc4C)ccc3C[C@H]2C(=O)O)cc1 [Example 16, 2-(4-Methoxybenzyl)-7-[2-(5-methyl-2-phenyloxazol-4-yl)ethoxy]-1,2,3,4-tetrahydroisoquinoline-(3S)-carboxylic acid] | – | – | – | 19.8 | – | 34.5 | 288.9 | –
5 | Cc1oc(-c2ccccc2)nc1CCOc1ccc2c(c1)CN(Cc1ccc(F)cc1)[C@H](C(=O)O)C2 [Example 21, 2-(4-Fluorobenzyl)-7-[2-(5-methyl-2-phenyloxazol-4-yl)ethoxy]-1,2,3,4-tetrahydroisoquinoline-(3S)-carboxylic acid] | – | – | – | 24.4 | – | 43.4 | 284.9 | –
6 | Cc1oc(-c2ccccc2)nc1CCOc1ccc2c(c1)CN(CC(C)(C)C)[C@H](C(=O)O)C2 [Example 23, 2-(2,2-Dimethylpropyl)-7-[2-(5-methyl-2-phenyloxazol-4-yl)ethoxy]-1,2,3,4-tetrahydroisoquinoline-(3S.)-carboxylic acid] | 382 | 28 | 30.4 | 50.4 | 24.3 | 42.9 | 214.2 | –
7 | Cc1oc(C(C)(C)C)nc1CCOc1ccc2c(c1)CN(Cc1ccccc1)[C@H](C(=O)O)C2 [Example 32, 2-Benzyl-7-[2-(5-methyl-2-tert-butyloxazol-4-yl)ethoxy]-1,2,3,4-tetrahydroisoquinoline-(3S)-carboxylic acid] | 402 | 30 | – | 32.5 | – | 36.4 | 181.2 | –
8 | Cc1oc(-c2cccs2)nc1CCOc1ccc2c(c1)CN(Cc1ccccc1)[C@H](C(=O)O)C2 [Example 33, 2-Benzyl-7-[2-(5-methyl-2-(thiophen-2-yl)oxazol-4-yl)ethoxy]-1,2,3,4-tetrahydroisoquinoline-(3S)-carboxylic acid] | – | – | – | 42.0 | – | 38.8 | 222.5 | –
9 | C#CCN1Cc2cc(OCCc3nc(-c4ccccc4)oc3C)ccc2C[C@H]1C(=O)O [Example 39, 7-[2-(5-Methyl-2-phenyloxazol-4-yl)ethoxy]-2-(2-propynyl)-1,2,3,4-tetrahydroisoquinoline-(3S)-carboxylic acid] | – | – | – | 15.6 | – | 30.7 | 258.0 | –
10 | CC=CCN1Cc2cc(OCCc3nc(-c4ccccc4)oc3C)ccc2C[C@H]1C(=O)O [Example 40] | – | – | – | 36.1 | – | 46.3 | 231.0 | –
11 | C=CCCN1Cc2cc(OCCc3nc(-c4ccccc4)oc3C)ccc2C[C@H]1C(=O)O [Example 42, 2-(3-Butenyl)-7-[2-(5-methyl-2-phenyloxazol-4-yl)ethoxy]-1,2,3,4-tetrahydroisoquinoline-(3S)-carboxylic acid] | 308 | 27 | – | 31.6 | 27.6 | 49.6 | 193.6 | –
